Read-outs that look alike come from different tables or passages of the source.
Assays:
[1] = system: Salmonella typhimurium TA100; assay: Ames fluctuation test TA100
Description: (§2) Bacterial cytotoxicity tests were carried out using Reverted Salmonella typhimurium strains
(§3) (TA98, TA100, TA1535, TA1537) that were incubated 96 hours at 37 Celsius. The results for
(§4) cytotoxicity are expressed as percent of control growth (OD650). Compounds with growth of
(§5) less than 60 % of control are flagged and considered cytotoxic.
(§6) Compounds were incubated for 96 hours at 37°C at 4 different concentrations (5 mM, 10 mM,
(§7) the absence and presence of rat liver S9 microsomes.
(§8) to the reversion of the histidine mutation (as judged by the ratio of OD430/OD570 being greater
(§9) than 1.0) are counted and recorded as positive counts. The significance of the positive counts
(§10) between the treatment (in the presence of test compound) and the control (in the absence of test
(§11) compound) are calculated using the one-tailed Fisher's exact test. Three significance levels are
(§12) Very strong positive, if p < 0.001, denoted as "+++"
(§13) Control experiments were carried out with 2-aminoanthracene (10 mM), 9-aminoacridine (10
(§14) mM), quercetin (30 mM) and streptozocitin (2.5 mM).

[2] = system: Salmonella typhimurium TA98; assay: Ames fluctuation test TA98
Description: as §2, §3, §4, §5, §6, §7, §8, §9, §10, §11, §12, §13, §14

CYP2C9 = target: T1, CYP2C9 (Homo sapiens, UniProt P11712); assay: Cytochrome P450 inhibition CYP2C9; type: in vitro ADME; conditions: single point at 10 μM; substrate diclofenac
T1 construct: Eurofins (subcontracted)

CYP2C8 = target: T2, CYP2C8 (Homo sapiens, UniProt P10632); assay: Cytochrome P450 inhibition CYP2C8; type: in vitro ADME; conditions: single point at 10 μM; substrate amodiaquine
T2 construct: Eurofins (subcontracted)
T2 sequence (P10632 1-490): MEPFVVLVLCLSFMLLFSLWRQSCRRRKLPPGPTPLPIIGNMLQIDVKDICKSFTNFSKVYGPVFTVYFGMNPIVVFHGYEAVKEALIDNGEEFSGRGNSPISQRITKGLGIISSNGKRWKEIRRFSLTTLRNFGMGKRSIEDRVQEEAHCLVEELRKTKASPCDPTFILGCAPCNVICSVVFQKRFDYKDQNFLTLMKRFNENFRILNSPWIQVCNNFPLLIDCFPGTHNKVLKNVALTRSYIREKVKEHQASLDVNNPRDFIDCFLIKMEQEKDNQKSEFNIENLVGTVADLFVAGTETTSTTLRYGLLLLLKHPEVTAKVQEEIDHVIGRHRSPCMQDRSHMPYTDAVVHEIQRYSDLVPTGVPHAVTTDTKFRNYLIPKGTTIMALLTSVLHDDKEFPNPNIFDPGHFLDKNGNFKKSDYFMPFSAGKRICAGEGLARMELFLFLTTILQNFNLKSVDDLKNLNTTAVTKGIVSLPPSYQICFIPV

[3] = Intrinsic clearance, human hepatocytes; type: in vitro ADME; conditions: hepatocytes
CYP2D6 = target: T3, CYP2D6 (Homo sapiens, UniProt P10635); assay: Cytochrome P450 inhibition CYP2D6; type: in vitro ADME; conditions: single point at 10 μM; substrate dextrometorphan
T3 construct: Eurofins (subcontracted)
T3 sequence (P10635 whole entry): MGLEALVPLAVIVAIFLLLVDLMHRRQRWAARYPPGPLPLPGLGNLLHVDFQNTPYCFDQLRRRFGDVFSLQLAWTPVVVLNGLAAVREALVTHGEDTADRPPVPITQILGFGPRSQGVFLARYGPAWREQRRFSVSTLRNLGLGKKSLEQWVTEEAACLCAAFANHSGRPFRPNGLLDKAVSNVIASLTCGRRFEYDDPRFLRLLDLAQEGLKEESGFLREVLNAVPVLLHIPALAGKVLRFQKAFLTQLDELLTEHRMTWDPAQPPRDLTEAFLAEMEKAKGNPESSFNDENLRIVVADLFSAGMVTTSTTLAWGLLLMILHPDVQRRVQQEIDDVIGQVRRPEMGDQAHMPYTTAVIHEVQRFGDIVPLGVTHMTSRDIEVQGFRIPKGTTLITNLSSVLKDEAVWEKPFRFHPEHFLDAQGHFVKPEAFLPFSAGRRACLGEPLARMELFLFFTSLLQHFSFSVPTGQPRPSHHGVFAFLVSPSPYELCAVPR

[4] = system: Salmonella typhimurium strains (TA98, TA100, TA1535, TA1537); assay: Ames tests, all strains (summary in words); conditions: in absence and presence of liver S9 fractions
Description: as §2, §3, §4, §5, §6, §7, §8, §9, §10, §11, §12, §13, §14

Cyp D = Cyp D (Homo sapiens, UniProt P30405)
Chain of Cyp D (P30405 42-207): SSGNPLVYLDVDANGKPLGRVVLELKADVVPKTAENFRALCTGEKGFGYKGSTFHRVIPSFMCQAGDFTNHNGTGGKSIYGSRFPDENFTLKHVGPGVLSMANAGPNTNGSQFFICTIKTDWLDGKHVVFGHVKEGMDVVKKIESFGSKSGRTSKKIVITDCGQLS
Description: (§15) The cyclophilin binding properties of the compounds were assessed by Surface Plasmon Resonance (SPR) against Cyp A, B and D isoforms (Table 1, representative sensorgrams are shown in Figure 3A).[35]
Surface Plasmon Resonance (SPR)
(§16) SPR measurements were performed on a Biacore T200 instrument (Cytiva). Ni2+ -
(§17) nitrilotriacetic acid (NTA) sensor chips, 1-ethyl-3-(3-diaminopropyl) carbodiimide
(§18) hydrochloride (EDC) and N hydroxy succinimide (NHS) were purchased from Cytiva.
(§19) Immobilization and covalent stabilization of His-Cyps Pure His-cyclophilins on the NTA
(§20) sensor chip was performed essentially as described. [Wear et al., 2017, FEBS OpenBio], using
(§21) 200 nM concentrations of each protein, in Running Buffer (PBS, pH7.4; 0.05 % surfactant P20,
(§22) 2% v/v ethanol; 50 µM EDTA), at 30 µl min-1 with 60 second contact times on the activated
(§23) NTA surfaces. This gave signals of 1,921 RU for His-CypA, 1932 RU for His-CypB and 1,397
(§24) RU for His-CypD. Specific surface protein activity was assayed by passing saturating amounts
(§25) activity were obtained for His-CypA, -B and –D, respectively.
Kinetic titration experiments
(§26) Single cycle kinetic titration binding experiments were performed in triplicate at 25 °C. 3-fold
(§27) injected over the sensor surface, at 100 µl min-1 with a 90 s contact time and a 90 s dissociation
(§28) time. The sensor surface was regenerated between experiments by dissociating any formed
(§29) complex in running buffer for at least 1,200 seconds. The apparent on-rate (k+) and off-rate (k-
(§30) ) constants and the equilibrium dissociation constant (Kd) were calculated from reference

CYP2B6 = target: T4, CYP2B6 (Homo sapiens, UniProt P20813); assay: Cytochrome P450 inhibition CYP2B6; type: in vitro ADME; conditions: single point at 10 μM; substrate bupropion
T4 construct: Eurofins (subcontracted)
T4 sequence (P20813 1-491): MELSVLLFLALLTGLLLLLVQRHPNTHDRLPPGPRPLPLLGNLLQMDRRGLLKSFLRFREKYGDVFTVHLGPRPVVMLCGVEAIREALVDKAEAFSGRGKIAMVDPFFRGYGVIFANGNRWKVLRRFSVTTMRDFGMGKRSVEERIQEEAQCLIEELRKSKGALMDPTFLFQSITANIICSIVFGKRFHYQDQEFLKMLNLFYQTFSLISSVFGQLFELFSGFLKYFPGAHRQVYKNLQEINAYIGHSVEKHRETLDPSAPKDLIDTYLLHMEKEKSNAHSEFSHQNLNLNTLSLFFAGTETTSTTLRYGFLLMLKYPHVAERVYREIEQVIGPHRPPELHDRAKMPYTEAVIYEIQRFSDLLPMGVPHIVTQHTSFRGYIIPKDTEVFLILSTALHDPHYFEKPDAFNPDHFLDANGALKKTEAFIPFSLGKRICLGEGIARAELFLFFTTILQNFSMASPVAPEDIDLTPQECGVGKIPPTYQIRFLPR

CYP1A = assay: Cytochrome P450 inhibition CYP1A; type: in vitro ADME; conditions: human, probe phenacetin; single point at 10 μM; substrate phenacetin
Caco-2 = Caco-2 permeability; conditions: apparent permeability A-B
Caco-2 permeability = conditions: human, Caco-2
[5] = Human plasma protein binding; type: in vitro ADME
Text: (§1) These experiments were subcontracted to Eurofins. […]

CYP2C19 = target: T5, CYP2C19 (Homo sapiens, UniProt P33261); assay: Cytochrome P450 inhibition CYP2C19; type: in vitro ADME; conditions: single point at 10 μM; substrate omeprazole
T5 construct: Eurofins (subcontracted)
T5 sequence (P33261 whole entry): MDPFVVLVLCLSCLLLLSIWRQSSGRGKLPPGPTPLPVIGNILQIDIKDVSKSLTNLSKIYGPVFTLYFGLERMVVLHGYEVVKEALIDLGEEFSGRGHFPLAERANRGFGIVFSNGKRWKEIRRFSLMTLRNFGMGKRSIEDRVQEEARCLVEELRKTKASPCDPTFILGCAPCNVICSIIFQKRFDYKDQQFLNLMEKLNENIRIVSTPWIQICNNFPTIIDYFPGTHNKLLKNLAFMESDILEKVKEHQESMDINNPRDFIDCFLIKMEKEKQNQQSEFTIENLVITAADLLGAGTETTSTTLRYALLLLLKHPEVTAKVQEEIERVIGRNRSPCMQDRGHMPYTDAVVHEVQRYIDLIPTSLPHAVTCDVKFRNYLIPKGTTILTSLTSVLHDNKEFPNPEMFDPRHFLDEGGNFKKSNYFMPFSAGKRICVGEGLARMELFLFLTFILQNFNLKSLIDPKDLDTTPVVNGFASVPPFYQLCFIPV

Cyp B [6] = target: T6, Cyp B (Homo sapiens, UniProt P23284); conditions: from SPR Kd
T6 sequence (P23284 32-216 limits assumed): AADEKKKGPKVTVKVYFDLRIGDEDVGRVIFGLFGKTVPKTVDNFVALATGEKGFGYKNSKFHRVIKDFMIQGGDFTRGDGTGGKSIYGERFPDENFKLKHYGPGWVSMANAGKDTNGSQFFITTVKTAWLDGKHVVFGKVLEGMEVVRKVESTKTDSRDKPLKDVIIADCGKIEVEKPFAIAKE
Description: as §15
Surface Plasmon Resonance (SPR)
as §16, §17, §18, §19, §20, §21, §22, §23, §24, §25
Kinetic titration experiments
as §26, §27, §28, §29, §30

iPSC-derived hepatocytes = assay: In vitro hepatic steatosis (MASH) assay; type: cell-based; conditions: 48 h treatment; for EC50: Hepatocyte, 48 h
Cyp A [7] = target: T7, Cyp A (Homo sapiens, UniProt P62937)
T7 sequence (P62937 whole entry): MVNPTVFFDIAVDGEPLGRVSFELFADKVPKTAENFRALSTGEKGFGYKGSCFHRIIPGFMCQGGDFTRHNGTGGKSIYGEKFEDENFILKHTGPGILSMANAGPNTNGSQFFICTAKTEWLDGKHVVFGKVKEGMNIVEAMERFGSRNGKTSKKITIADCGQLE
Description: as §15
Surface Plasmon Resonance (SPR)
as §16, §17, §18, §19, §20, §21, §22, §23, §24, §25
Kinetic titration experiments
as §26, §27, §28, §29, §30

[8] = Partition coefficient (Log D), shake-flask; conditions: octanol/water
Description: (§31) Kinetic solubility measurements were carried out using a shake-flask technique. Compounds
(§32) were incubated for 24 hours at room temperature. Aqueous solubility (μM) was determined by
(§33) comparing the peak area of the principal peak in a calibration standard (200 μM) containing
(§34) organic solvent (methanol/water, 60/40, v/v) with the peak area of the corresponding peak in a
(§35) buffer sample. In addition, chromatographic purity (%) was defined as the peak area of the
(§36) principal peak relative to the total integrated peak area in the HPLC chromatogram of the
(§37) calibration standard. A chromatogram of the calibration standard of each test compound, along
(§38) with a UV/VIS spectrum with labeled absorbance maxima, was generated.
(§39) These were measured using a shake-flask technique. Compounds were incubated for 60 min at
(§40) room temperature. The total amount of compound was determined as the peak area of the
(§41) principal peak in a calibration standard (100 μM) containing organic solvent (methanol/water,
(§42) 60/40, v/v). The amount of compound in buffer was determined as the combined, volume
(§43) corrected, and weighted areas of the corresponding peaks in the aqueous phases of three
(§44) organic-aqueous samples of different composition. An automated weighting system was used
(§45) to ensure the preferred use of raw data from those samples with well quantifiable peak signals.
(§46) The amount of compound in organic was calculated by subtraction. Subsequently, Log D was
(§47) calculated as the Log10 of the amount of compound in the organic phase divided by the amount
of compound in the aqueous phase.

Cyp A [9] = target: T7, Cyp A; assay: Isothermal titration calorimetry (ITC), Cyp A; type: binding; design: full-length human CypA (M1 – E165); made in house; host or cells: Escherichia coli OverExpress C41 BL21(DE3); conditions: 25 °C
Description: All ITC experiments were carried out at 25°C on a MicroCal Auto iTC200 (GE Healthcare)
solutions were heated to 65°C and/or sonicated prior to the experiment. Each experiment
consisted of an initial injection of 0.4 μL followed by repeated 2 μL injections to achieve
saturation. In all cases the first injection
was omitted from the data processing. All data were analysed using the MicroCal PEAQ-ITC
Analysis software. A fixed stoichiometry to 1 was applied during the non-linear regression of
the raw data for fitting the data.

[10] = Intrinsic clearance, rat liver microsomes; type: in vitro ADME
CYP3A = assay: Cytochrome P450 inhibition CYP3A; type: in vitro ADME; conditions: human, single point at 10 μM
[11] = Rat plasma protein binding; type: in vitro ADME
Text: as §1

[12] = system: Salmonella typhimurium TA1537; assay: Ames fluctuation test TA1537
Description: as §2, §3, §4, §5, §6, §7, §8, §9, §10, §11, §12, §13, §14

[13] = Intrinsic clearance, rat hepatocytes; type: in vitro ADME; conditions: hepatocytes
[14] = Aqueous kinetic solubility, shake-flask
Description: as §31, §32, §33, §34, §35, §36, §37, §38, §39, §40, §41, §42, §43, §44, §45, §46, §47
of compound in the aqueous phase.

[15] = Intrinsic clearance, human liver microsomes; type: in vitro ADME
Cyp B [16] = target: T6, Cyp B; assay: biochemical; conditions: Kd Cyp B, SPR-derived dissociation constant, 25 °C
Description: as §15
Surface Plasmon Resonance (SPR)
as §16, §17, §18, §19, §20, §21, §22, §23, §24, §25
Kinetic titration experiments
as §26, §27, §28, §29, §30

[17] = system: Salmonella typhimurium TA1535; assay: Ames fluctuation test TA1535
Description: as §2, §3, §4, §5, §6, §7, §8, §9, §10, §11, §12, §13, §14

T1 sequence (P11712 whole entry): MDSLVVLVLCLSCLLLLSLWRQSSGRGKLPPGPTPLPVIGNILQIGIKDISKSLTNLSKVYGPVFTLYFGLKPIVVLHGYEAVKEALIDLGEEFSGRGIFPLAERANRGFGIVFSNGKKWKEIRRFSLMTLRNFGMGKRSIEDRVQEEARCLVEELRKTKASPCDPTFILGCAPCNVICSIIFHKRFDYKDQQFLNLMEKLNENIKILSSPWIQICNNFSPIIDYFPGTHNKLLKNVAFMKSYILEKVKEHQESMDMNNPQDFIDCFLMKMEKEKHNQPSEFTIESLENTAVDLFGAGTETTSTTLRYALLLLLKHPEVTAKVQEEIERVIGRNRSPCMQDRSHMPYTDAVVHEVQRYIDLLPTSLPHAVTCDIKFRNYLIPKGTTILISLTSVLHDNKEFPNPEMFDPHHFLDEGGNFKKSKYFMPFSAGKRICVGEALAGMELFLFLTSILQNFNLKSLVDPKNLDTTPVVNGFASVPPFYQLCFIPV

SMILES: CSc1ccccc1[C@H]1CCCN1C(=O)CNC(=O)N(Cc1ccc(N)c(Cl)c1)Cc1nnn(C)n1 [Compound 11, 1-[(4-Amino-3-chloro-phenyl)methyl]-1-[(2-methyltetrazol-5-yl)methyl]-3-[2-oxo-2-[(2R)-2-(2-methylsulfanylphenyl)pyrrolidin-1-yl]ethyl]urea]
- Ames fluctuation test TA100 +S9 ([1]; with rat liver S9): neg/neg
- Ames fluctuation test TA100 –S9 ([1]; without S9): neg/neg
- Ames fluctuation test TA98 +S9 ([2]; with rat liver S9): neg/neg
- Ames fluctuation test TA98 –S9 ([2]; without S9): neg/neg
- CYP2C9 diclofenac % inhibition (CYP2C9): 45%
- CYP2C8 amodiaquine % inhibition (CYP2C8): 71%
- hepatocyte CLint ([3]; Table 3, read-out: Human Hepatocytes CL): 13 µL/min/1e6 cells
- half-life ([3]; read-out: Human Hepatocytes t1/2): 74 min
- CYP2D6 dextrometor. % inhibition (CYP2D6): 18%
- Ames result in all strains tested [4]: negative
- Kd (Cyp D): 180 ± 100 nM
- CYP2B6 bupropion % inhibition (CYP2B6): 11%
- inhibition at 10 µM (CYP1A): 25%
- Caco-2 A-B (Caco-2): 5 10^–6 cm/s
- efflux ratio (Caco-2 permeability): 2.8
- recovery [5]: 88%
- fraction unbound at 10 µM ([5]; read-out: Human PPB free): 0.02
- CYP2C19 omeprazole % inhibition (CYP2C19): 72%
- greater affinity for Cyp B compared to 12 (Cyp B [6]): ca. 7 fold
- selectivity for Cyp B over Cyp A (Cyp B [6]): 10 fold
- selectivity for Cyp B over Cyp A and Cyp D (Cyp B [6]): 10–20 fold
- effect on hepatocyte overall lipid levels and lipid droplet size (in words) (iPSC-derived hepatocytes): significant reduction
- EC50 (iPSC-derived hepatocytes; 95% CI [lower limit, upper limit], read-out: EC50 steatosis): ~300 nM
- EC50 (iPSC-derived hepatocytes; read-out: EC50 MASH assay): 258 nM
- Kd (Cyp A [7]): 110 ± 50 nM
- logD at 1 h, 100 µM [8]: 1.53
- DG (ITC) (Cyp A [9]; ITC titration to Cyp A): -9.7 ± 0.1 kcal/mol
- DH (ITC) (Cyp A [9]; ITC titration to Cyp A): -16.4 ± 0.1 kcal/mol
- TDS (ITC) (Cyp A [9]; ITC titration to Cyp A): -6.7 kcal/mol
- Kd (Cyp A [9]; ITC, pH 6.5, 2% DMSO, read-out: Kd Cyp A from ITC): 82 ± 6 nM
- microsomal CLint ([10]; Table 3, read-out: Rat Liver microsomes CL): 352 µL/min/mg
- half-life ([10]; read-out: Rat Liver microsomes t1/2): 20 min
- inhibition at 10 µM (CYP3A; probe midazolam, substrate midazolam, read-out: CYP3A midazolam % inhibition): 73%
- inhibition at 10 µM (CYP3A; probe testoterone, substrate testoterone, read-out: CYP3A testoterone % inhibition): 59%
- recovery at 10 μM [11]: 99%
- fraction unbound at 10 µM ([11]; read-out: Rat PPB free): 0.11
- Ames fluctuation test TA1537 +S9 ([12]; with rat liver S9): neg/neg
- Ames fluctuation test TA1537 –S9 ([12]; without S9): neg/neg
- hepatocyte CLint ([13]; Table 3, read-out: Rat Hepatocytes CL): 13 µL/min/1e6 cells
- half-life ([13]; read-out: Rat Hepatocytes t1/2): 78 min
- solubility at 24 h ([14]; PBS, pH 7.4): > 200 µM
- solubility at 24 h ([14]; simulated gastric fluid): > 200 µM
- solubility at 24 h ([14]; simulated intestinal fluid): > 200 µM
- microsomal CLint ([15]; Table 3, read-out: Human Liver microsomes CL): 558 µL/min/mg
- half-life ([15]; read-out: Human Liver microsomes t1/2): 12 min
- Kd (Cyp B [16]): 12 ± 3 nM
- Ames fluctuation test TA1535 +S9 ([17]; with rat liver S9): neg/neg
- Ames fluctuation test TA1535 –S9 ([17]; without S9): neg/neg
